The values that follow come from publication PMC8327742 (Haematologica, 2021).

Assay [1] deals with EBF1-PDGFRB. Description: viability assay of transformed Ba/F3 cells. The class given is cell-based, Homo sapiens. The following applies: Ba/F3 cells with wild-type fusion; cell viability read-out.
The subject of assay [2] is EBF1-PDGFRB. The settings on record: Ba/F3 cells with mutant fusion; cell viability read-out; gatekeeper; stated gain.

Like-named read-outs stand apart in the source and are kept apart here.

A word on the IC50: it is the point on the concentration scale where inhibition reaches its midpoint.

Turning to `Cc1nc(Nc2ncc(C(=O)Nc3c(C)cccc3Cl)s2)cc(N2CCN(CCO)CC2)n1` [dasatinib], the IC50 in the assay with EBF1-PDGFRB [1] turned out to be 5.26 nM.

Turning to `Cc1ccc(C(=O)Nc2ccc(CN3CCN(C)CC3)c(C(F)(F)F)c2)cc1C#Cc1cnc2cccnn12` [ponatinib], the IC50 in the assay with EBF1-PDGFRB [2] worked out at 23.93 nM; with EBF1-PDGFRB [1], 5.73 nM.
